In ChEMBL document CHEMBL4414646, “Eutypellacytosporins A-D, Meroterpenoids from the Arctic Fungus Eutypella sp. D-1” (J Nat Prod, 2019) one finds IC50 data, which are given here for 5 molecules.

What all share (type): functional, cell-based
In one assay the test system is DU-145. Description: Cytotoxicity against human DU145 cells assessed as reduction in cell viability incubated for 72 hrs by CCK8 assay. To be noted: DU-145, 72 h.
A further assay concerns PANC-1. Description: Cytotoxicity against human PANC1 cells assessed as reduction in cell viability incubated for 72 hrs by CCK8 assay. The settings on record: PANC-1, 72 h. (In general: Formazan colour is commonly taken as a measure of viable cells.)
In a further assay the test system is Huh-7. Description: Cytotoxicity against human HuH7 cells assessed as reduction in cell viability incubated for 72 hrs by CCK8 assay. The settings on record: Huh-7, 72 h.
In the next assay the test system is SW1990. The experiment in a line: Cytotoxicity against human SW1990 cells assessed as reduction in cell viability incubated for 72 hrs by CCK8 assay. The settings on record: SW1990, 72 h.

Turning to `C=C1[C@@H](OC(=O)C(C)(C)[C@H](C)O)C[C@H]2C[C@@H]1[C@]21C[C@@]2(C[C@H](C)C(=O)O2)O[C@@H]1OCC1=C(/C=C/CCCCC)[C@@H](O)[C@@H]2O[C@@]23C[C@H](O)C(C)(C)O[C@@H]13`, the IC50 (as a rule, the concentration that inhibits the measured activity by half) in the assay with DU-145 was determined as 17.1 µM; in the assay on PANC-1, 9.7 µM; in the assay on Huh-7, 8.4 µM; in the assay with SW1990 it was 7.3 µM.

Consider `C=C1[C@@H](OC(=O)C(C)(C)[C@H](C)O)C[C@H]2C[C@@H]1[C@]21C[C@@]2(C[C@H](C)C(=O)O2)O[C@H]1OCC1=C(/C=C/CCCCC)[C@@H](O)[C@@H]2O[C@@]23C[C@H](O)C(C)(C)O[C@@H]13`, for which the IC50 in the assay with DU-145 was found to be 11 µM; in the assay with PANC-1, 7.9 µM; with Huh-7, 4.9 µM; with SW1990, 4.9 µM.

`CCCCC/C=C/C1=C(CO)[C@@H]2OC(C)(C)[C@@H](O)C[C@@]23O[C@H]3[C@@H]1O`: the IC50 in the assay with DU-145, in the assay on PANC-1, in the assay on Huh-7 and with SW1990 was above 50 µM in each case.

As for `C=C1[C@@H](OC(=O)C(C)(C)[C@H](C)O)C[C@H]2C[C@@H]1[C@]21C[C@]2(C[C@H](C)C(=O)O2)O[C@@H]1OCC1=C(/C=C/CCCCC)[C@@H](O)[C@@H]2O[C@@]23C[C@H](O)C(C)(C)O[C@@H]13`, the IC50 came out at 13.5 µM with DU-145, 10.2 µM with PANC-1, 11.2 µM with Huh-7 and 9.6 µM in the assay on SW1990.

As for `C=C1[C@@H](OC(=O)C(C)(C)[C@H](C)O)C[C@H]2C[C@@H]1[C@]21C[C@]2(C[C@H](C)C(=O)O2)O[C@H]1OCC1=C(/C=C/CCCCC)[C@@H](O)[C@@H]2O[C@@]23C[C@H](O)C(C)(C)O[C@@H]13`, the IC50 in the assay on DU-145 was 13.4 µM; in the assay on PANC-1, 7.5 µM; in the assay on Huh-7, 9.6 µM; in the assay on SW1990 it was 8.2 µM.
